Laboratory results reported in US4640916A, “1,4-benzothiazine derivatives, compositions containing them and method of use” (priority 1984, dated 1987).
Counter-ions that a name gives are not always drawn.

Tests used:
[1] = tested on: ischemic seizure induced by bilateral carotid artery occlusion; experiment: Effect on the ischemic seizure induced by bilateral carotid artery occlusion in spontaneously hypertensive rats; assay type: in vivo; settings: p.o.; for Time toward ischemic seizure: 1 h before occlusion
Procedure: Male spontaneously hypertensive rats, 20 to 22 week old, were orally given the compounds or tap water at a volume of 5 ml/kg. After 1 hour, the carotid artery was bilaterally occluded by use of silk thread under anesthesia with sodium pentobarbital (50 mg/kg, i.p.). The length of time until the ischemic seizure such as convulsion and jumping was observed was measured, immediately after the occlusion of carotid artery.

[2] = tested on: ischemic acute renal failure in rats; experiment: Effect on the ischemic acute renal failure in rats; assay type: in vivo, Sprague-Dawley rats; settings: for Plasma urea nitrogen (BUN): p.o., 24 h after reperfusion
Procedure: The left renal artery of male Sprague-Dawley rats, 6 week old, was clamped for 1 hour under anesthesia with sodium pentobarbital (50 mg/kg, i.p.). The compounds or water was orally given 1 hour before the occlusion. The compounds were again given 20 hour after the reperfusion of the blood. Twenty four hour after the reperfusion, the blood was obtained from the abdominal aorta under anesthesia for measurement of plasma urea nitrogen (BUN).

[3] = tested on: spontaneously hypertensive rats; experiment: Antihypertensive action in spontaneously hypertensive rats (tail-cuff); assay type: in vivo; settings: 3 mg/Kg oral; 1 h after administration
Procedure: Male 12 to 13 weeks old spontaneously hypertensive rats with about 200 mm Hg of blood pressure were used in groups of 3 individuals. Mean arterial blood pressures of these animals were measured by the tail-cuff method, then the animals were orally given 3-60 mg/kg of each test compound of this invention as 2 ml of its suspension in gum arabic. Blood pressure measurements were made again one hour after administration of each test compound.

[4] = tested on: ischemia-reperfusion-induced ventricular arrythmia in rats; experiment: Effect on the ischemia-reperfusion-induced ventricular arrhythmia in rats; assay type: in vivo, Sprague-Dawley rats; settings: p.o.; for Incidence of cardiac arrest (CA), rats affected/rats used / Incidence of ventricular fibrillation (VF), rats affected/rats used / Incidence of ventricular tachycardia (VT), rats affected/rats used: 10 min after reperfusion
Procedure: Male Sprague-Dawley rats, 9 to 10 week old, were orally given the compounds or tap water at a volume of 5 ml/kg. After 1 hour, rats were anesthetized with sodium pentobarbital (50 mg/kg, i.p.), and left anterior descending coronary artery was occluded for 5 min. with a silk thread under ventilation. The incidences of ventricular tachycardia (VT), ventricular fibrilation (VF) and cardiac arrest (CA) occurred for 10 min. after reperfusion of the blood were calculated.

intracellular Ca^++ = settings: (2) Ca++ from intracellular store site; (3) Ca++ through receptor-dependent channel; cited from earlier work
[5] = cited from earlier work
[6] = tested on: contraction depending on intracellular Ca^++; experiment: Intracellular Ca++ antagonism: inhibition of phenylephrine contraction of aorta strip in Ca++-free EGTA solution; assay type: cell-based, rabbit; settings: Oryctolagus cuniculus; compound 10^-4 M; phenylephrine 10^-6 M; Ca++ 0 mM, EGTA 5 mM; read-out: Inhibitory percent (contraction depending on intracellular Ca++)
Procedure: A spiral strip of aorta of a rabbit (2-3 mm width, about 3 cm length) was allowed to equilibrate by hanging under 2 g force in a Krebs-Henseleit solution. The solution was saturated with a mixture gas 97% O2 --3% CO2, which was warmed to 37° C. The strip was moved into another Krebs-Henseleit solution containing Ca^++ OmM and EGTA 5 mM. Five minutes later, phenylephrine (10^-6 M) was added on the solution. The resulting contraction of the strip was made as the index of the contraction depending on intracellular Ca^++.

[7] = in vivo; cited from earlier work

## O=C1Nc2cc3c(cc2SC1CCCN1CCN(c2ccc(F)cc2)CC1)CCC3 (stereo not drawn) [Example 46, 6,7-cyclopenteno-2-[3-[4-(4-fluorophenyl)-1-piperazinyl]propyl]-2H-1,4-benzothiazin-3(4H)-one.hydrochloride]
[1]; 0.1 mg/kg, control 153 ± 8
  Time toward ischemic seizure: 167 ± 13 min
[1]; 0.3 mg/kg, control 143 ± 7
  Time toward ischemic seizure: 190 ± 11 min
[1]; 1 mg/kg, control 139 ± 9 (Ex. 48), 150 ± 6 (Ex. 46)
  Time toward ischemic seizure: 217 ± 11 min
[1]; 3 mg/kg, control 152 ± 14 (Ex. 48), 150 ± 6 (Ex. 46)
  Time toward ischemic seizure: 279 ± 18 min
[1]; Ex. 48 at 1, 3 and 10 mg/kg, Ex. 46 at 0.3, 1 and 3 mg/kg
  Effect on time of the beginning of the ischemic seizure (in words): prolonged the time of the beginning of the ischematic seizure in a dose-dependent manner
[2]; 1 mg/kg, control 20.4 ± 0.4
  Plasma urea nitrogen (BUN): 18.0 ± 0.7 mg/dL
[2]; 3 mg/kg, control 20.3 ± 0.6 (Ex. 48), 25.1 ± 0.8 (Ex. 46)
  Plasma urea nitrogen (BUN): 19.6 ± 0.8 mg/dL
[2]; Ex. 48 at 10 mg/kg, Ex. 46 at 1 and 3 mg/kg
  Effect on the increase in BUN (in words): inhibited the increase in BUN
[3]
  Antihypertensive effect (difference of blood pressure before and after medication): 33 ΔmmHg
[4]; 0.3 mg/kg
  Incidence of cardiac arrest (CA), rats affected/rats used: 9/19
  Incidence of ventricular fibrillation (VF), rats affected/rats used: 9/19
  Incidence of ventricular tachycardia (VT), rats affected/rats used: 12/19
[4]; 1 mg/kg
  Incidence of cardiac arrest (CA), rats affected/rats used: 0/12
  Incidence of ventricular fibrillation (VF), rats affected/rats used: 5/12
  Incidence of ventricular tachycardia (VT), rats affected/rats used: 7/12
[4]; 3 mg/kg
  Incidence of cardiac arrest (CA), rats affected/rats used: 0/12
  Incidence of ventricular fibrillation (VF), rats affected/rats used: 2/12
  Incidence of ventricular tachycardia (VT), rats affected/rats used: 5/12
[4]; 10 mg/kg
  Incidence of cardiac arrest (CA), rats affected/rats used: 0/4
  Incidence of ventricular fibrillation (VF), rats affected/rats used: 1/4
  Incidence of ventricular tachycardia (VT), rats affected/rats used: 1/4
[4]; Ex. 48 at 1, 3 and 10 mg/kg, Ex. 46 at 0.3, 1, 3 and 10 mg/kg
  Effect on incidences of VT, VF and CA (in words): inhibited the incidences of VT, VF and CA in a dose-dependent manner

## CCN(CC)CCCCCCCCOC(=O)c1cc(OC)c(OC)c(OC)c1 [TMB-8]
Intracellular Ca^++
  Action on intracellular Ca++ (in words): weak in their action
[5]
  Antihypertensive action in vivo (in words): do not display antihypertensive action in vivo
[6]
  inhibition at 100 µM: 58%

## COc1cc2nc(N3CCN(C(=O)c4ccco4)CC3)nc(N)c2cc1OC [prazosin]
[7]
  Side effects of known drugs (in words): orthostatic hypotension often observed

## CN1CCN(CCCN2c3ccccc3Sc3ccc(C(F)(F)F)cc32)CC1 [trifluoperazine]
Intracellular Ca^++
  Action on intracellular Ca++ (in words): showing antagonism against intracellular Ca^++
[7]
  Side effects of known drugs (in words): side effects e.g. on the central nervous system

## NCCCCCCNS(=O)(=O)c1cccc2c(Cl)cccc12 [Example W-7]
Intracellular Ca^++
  Action on intracellular Ca++ (in words): weak in their action

## COC(=O)C1=C(C)NC(C)=C(C(=O)OC)C1c1ccccc1[N+](=O)[O-] [nifedipine]
Intracellular Ca^++
  Action on intracellular Ca++ (in words): hardly acts on (2) and (3)
